Earlier results as cited in patent US20250127175A1, “ANTIMICROBIAL POLYMER COMPOSITIONS, ANTIMICROBIAL POLYMER ARTICLES, AND METHODS OF MAKING THE SAME” (CORNING INCORPORATED, priority 2021, published 2025).

Conditions: water-soluble defined as minimum of 20 grams in 100 milliliters of water at 25° C.

## CCCCn1cc[n+](C)c1.F[P-](F)(F)(F)(F)F [1-butyl-3-methylimidazolium hexafluorophosphate]
  water solubility (in words): water insoluble
